Measured values from paper PMC8222254, “Self-assembly of an anion receptor with metal-dependent kinase inhibition and potent in vitro anti-cancer properties” (Nature Communications, 2021).
Values joined by “and” are separate entries in the source; they are usually repeats but may differ in a detail not shown here. Equal values may be shown once.

Key:
Experiment in all cases: Kinase inhibition screen, cell-free 33P ATP assay at 10 μM
Assay type in all cases: biochemical
[1] = biological target: 140 purified human kinases (Homo sapiens, UniProt O43353)
Chain of 140 purified human kinases (Homo sapiens, UniProt O43353) (O43353 whole entry): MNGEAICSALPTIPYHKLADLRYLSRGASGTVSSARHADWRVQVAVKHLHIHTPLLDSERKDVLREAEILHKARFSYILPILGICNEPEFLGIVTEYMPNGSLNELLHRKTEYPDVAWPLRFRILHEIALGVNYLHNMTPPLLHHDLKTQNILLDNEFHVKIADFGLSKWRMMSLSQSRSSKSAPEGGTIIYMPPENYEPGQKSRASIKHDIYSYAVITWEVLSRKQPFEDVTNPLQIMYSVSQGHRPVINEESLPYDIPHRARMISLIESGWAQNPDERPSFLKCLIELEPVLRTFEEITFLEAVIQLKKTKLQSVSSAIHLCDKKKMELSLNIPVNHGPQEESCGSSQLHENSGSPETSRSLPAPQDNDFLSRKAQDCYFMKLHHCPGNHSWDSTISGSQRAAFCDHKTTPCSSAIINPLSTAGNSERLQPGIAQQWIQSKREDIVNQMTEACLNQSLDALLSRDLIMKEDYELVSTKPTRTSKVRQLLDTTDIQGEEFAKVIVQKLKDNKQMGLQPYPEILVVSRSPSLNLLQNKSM
In short: (§1)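 Each complex tested in duplicate at 10 μM; cell-free radiometric assay using ^33P ATP on purified enzymes. Hits mapped by HGNC symbol onto the kinome tree.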

[2] = biological target: 140 purified human kinases (Homo sapiens, UniProt P43405); details: SYK
In short: as §1

[3] = biological target: 140 purified human kinases (Homo sapiens, UniProt Q9HC98)
Chain of 140 purified human kinases (Homo sapiens, UniProt Q9HC98) (Q9HC98 whole entry): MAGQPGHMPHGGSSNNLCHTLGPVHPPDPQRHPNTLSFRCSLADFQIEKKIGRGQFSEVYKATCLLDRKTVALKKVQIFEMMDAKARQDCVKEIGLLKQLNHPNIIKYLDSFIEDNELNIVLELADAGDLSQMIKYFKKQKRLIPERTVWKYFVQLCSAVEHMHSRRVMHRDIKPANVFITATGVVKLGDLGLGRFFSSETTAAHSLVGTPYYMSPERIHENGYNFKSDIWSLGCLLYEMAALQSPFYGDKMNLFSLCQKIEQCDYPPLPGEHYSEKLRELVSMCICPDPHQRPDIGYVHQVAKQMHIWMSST
In short: as §1

[4] = biological target: 140 purified human kinases (Homo sapiens, UniProt P04629); details: TrkA
Chain of 140 purified human kinases (Homo sapiens, UniProt P04629) (P04629 33-796): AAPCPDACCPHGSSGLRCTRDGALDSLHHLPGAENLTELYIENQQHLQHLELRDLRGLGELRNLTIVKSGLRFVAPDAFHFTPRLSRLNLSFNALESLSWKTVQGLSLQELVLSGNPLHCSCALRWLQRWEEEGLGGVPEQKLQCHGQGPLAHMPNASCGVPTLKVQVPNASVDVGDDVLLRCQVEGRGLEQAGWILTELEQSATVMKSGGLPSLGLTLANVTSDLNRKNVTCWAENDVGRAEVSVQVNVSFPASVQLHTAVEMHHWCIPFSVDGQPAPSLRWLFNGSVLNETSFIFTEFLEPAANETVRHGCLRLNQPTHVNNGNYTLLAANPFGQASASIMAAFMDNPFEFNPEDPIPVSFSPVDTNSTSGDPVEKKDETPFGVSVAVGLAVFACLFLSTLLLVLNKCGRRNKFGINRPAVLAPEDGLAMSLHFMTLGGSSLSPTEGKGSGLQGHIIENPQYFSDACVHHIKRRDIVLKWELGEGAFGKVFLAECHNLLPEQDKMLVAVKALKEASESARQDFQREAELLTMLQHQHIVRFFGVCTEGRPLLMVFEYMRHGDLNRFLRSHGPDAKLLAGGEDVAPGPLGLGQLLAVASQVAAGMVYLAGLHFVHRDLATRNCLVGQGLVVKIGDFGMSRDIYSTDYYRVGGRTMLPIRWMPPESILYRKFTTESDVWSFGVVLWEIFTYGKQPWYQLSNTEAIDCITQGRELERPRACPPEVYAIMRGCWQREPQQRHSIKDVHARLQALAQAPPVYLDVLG
In short: as §1

[5] = biological target: T1, 140 purified human kinases (Homo sapiens, UniProt O14965); details: Aurora A
T1 sequence (O14965 1-403): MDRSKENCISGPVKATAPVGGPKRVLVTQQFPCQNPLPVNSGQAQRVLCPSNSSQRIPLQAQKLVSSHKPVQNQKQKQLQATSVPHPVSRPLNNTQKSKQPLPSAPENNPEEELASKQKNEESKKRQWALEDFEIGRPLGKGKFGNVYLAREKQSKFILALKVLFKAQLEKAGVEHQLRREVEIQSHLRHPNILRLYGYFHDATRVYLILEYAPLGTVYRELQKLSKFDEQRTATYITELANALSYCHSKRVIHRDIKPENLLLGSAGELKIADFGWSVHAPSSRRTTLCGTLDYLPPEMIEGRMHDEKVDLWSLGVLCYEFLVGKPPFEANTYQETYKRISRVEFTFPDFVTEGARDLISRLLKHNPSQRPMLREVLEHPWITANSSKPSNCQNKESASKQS
In short: as §1

[6] = biological target: 140 purified human kinases (Homo sapiens, UniProt P48730); details: CK1δ; for % Activity Run 1 / % Activity Run 2: 10 µM
Chain of 140 purified human kinases (Homo sapiens, UniProt P48730) (P48730 whole entry): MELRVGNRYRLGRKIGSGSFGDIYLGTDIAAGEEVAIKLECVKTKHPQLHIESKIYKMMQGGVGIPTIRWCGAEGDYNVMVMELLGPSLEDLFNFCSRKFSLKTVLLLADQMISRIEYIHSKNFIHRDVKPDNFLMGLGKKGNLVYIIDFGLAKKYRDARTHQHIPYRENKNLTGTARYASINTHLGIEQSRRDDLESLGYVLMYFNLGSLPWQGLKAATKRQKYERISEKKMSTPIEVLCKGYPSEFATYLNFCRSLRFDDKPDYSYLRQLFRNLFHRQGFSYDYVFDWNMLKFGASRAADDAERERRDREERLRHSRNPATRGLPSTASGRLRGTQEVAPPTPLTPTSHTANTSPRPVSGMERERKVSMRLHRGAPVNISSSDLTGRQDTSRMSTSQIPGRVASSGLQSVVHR
In short: as §1

[7] = biological target: 140 purified human kinases (Homo sapiens, UniProt P27361)
Chain of 140 purified human kinases (Homo sapiens, UniProt P27361) (P27361 whole entry): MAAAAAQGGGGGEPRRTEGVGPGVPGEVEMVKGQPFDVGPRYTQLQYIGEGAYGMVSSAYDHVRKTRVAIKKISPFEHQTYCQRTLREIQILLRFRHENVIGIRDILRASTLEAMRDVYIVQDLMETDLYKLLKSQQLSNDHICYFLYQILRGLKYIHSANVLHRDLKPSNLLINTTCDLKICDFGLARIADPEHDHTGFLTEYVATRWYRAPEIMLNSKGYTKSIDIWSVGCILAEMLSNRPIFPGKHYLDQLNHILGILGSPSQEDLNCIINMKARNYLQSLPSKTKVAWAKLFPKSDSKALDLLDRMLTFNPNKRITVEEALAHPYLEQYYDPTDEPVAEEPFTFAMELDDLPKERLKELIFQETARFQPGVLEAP
In short: as §1

[8] = biological target: T2, 140 purified human kinases (Homo sapiens, UniProt O15264); details: p38d MAPK
T2 sequence (O15264 1-365): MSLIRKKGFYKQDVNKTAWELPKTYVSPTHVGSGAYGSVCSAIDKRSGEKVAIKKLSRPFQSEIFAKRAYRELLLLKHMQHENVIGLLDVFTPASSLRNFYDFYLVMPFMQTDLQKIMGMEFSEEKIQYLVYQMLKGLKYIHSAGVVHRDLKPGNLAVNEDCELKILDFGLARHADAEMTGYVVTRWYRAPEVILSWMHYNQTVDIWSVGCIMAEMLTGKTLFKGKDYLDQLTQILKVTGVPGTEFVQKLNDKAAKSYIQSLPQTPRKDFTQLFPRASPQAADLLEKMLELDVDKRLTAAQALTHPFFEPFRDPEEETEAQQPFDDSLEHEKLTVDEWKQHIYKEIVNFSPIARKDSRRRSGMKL
In short: as §1

[9] = biological target: 140 purified human kinases (Homo sapiens, UniProt Q15418)
Chain of 140 purified human kinases (Homo sapiens, UniProt Q15418) (Q15418 whole entry): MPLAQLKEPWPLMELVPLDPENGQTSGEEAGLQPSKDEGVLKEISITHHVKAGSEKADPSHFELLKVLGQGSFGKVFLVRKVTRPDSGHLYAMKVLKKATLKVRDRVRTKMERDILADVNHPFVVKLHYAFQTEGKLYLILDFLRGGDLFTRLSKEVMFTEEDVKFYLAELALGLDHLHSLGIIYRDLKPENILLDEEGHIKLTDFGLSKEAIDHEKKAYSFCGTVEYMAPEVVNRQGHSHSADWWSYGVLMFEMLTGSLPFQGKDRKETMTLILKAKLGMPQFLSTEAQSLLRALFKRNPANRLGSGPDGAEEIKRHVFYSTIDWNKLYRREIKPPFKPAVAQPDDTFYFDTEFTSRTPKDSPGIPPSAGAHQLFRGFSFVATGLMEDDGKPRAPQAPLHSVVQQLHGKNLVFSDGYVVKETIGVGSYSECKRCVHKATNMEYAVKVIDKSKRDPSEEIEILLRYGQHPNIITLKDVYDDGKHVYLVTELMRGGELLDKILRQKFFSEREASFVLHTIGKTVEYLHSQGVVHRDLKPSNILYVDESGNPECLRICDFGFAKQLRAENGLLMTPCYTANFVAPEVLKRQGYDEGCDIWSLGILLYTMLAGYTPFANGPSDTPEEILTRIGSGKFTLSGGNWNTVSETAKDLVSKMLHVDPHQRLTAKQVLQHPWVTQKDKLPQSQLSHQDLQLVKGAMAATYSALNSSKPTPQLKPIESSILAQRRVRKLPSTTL
In short: as §1

[10] = biological target: 140 purified human kinases (Homo sapiens, UniProt Q13131); details: AMPK (hum); for % Activity inhibition Mean / % Activity inhibition Run 1 / % Activity inhibition Run 2 / % Activity remaining Run 1 / % Activity remaining Run 2: 10 µM
Chain of 140 purified human kinases (Homo sapiens, UniProt Q13131) (Q13131 whole entry): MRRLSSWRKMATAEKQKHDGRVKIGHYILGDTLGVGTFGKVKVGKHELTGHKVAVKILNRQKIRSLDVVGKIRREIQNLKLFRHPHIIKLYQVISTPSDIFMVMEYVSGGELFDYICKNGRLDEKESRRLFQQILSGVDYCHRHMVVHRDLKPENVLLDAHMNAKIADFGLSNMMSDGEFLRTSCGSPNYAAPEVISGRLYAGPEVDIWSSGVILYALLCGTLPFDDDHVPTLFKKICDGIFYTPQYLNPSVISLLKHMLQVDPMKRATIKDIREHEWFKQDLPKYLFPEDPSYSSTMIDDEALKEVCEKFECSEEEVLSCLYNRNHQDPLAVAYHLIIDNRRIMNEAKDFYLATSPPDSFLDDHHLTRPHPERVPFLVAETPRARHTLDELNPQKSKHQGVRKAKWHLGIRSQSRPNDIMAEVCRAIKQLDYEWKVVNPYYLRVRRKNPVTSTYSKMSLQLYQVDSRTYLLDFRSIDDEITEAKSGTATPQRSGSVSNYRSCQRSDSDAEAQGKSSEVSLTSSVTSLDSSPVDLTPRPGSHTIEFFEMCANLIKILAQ
In short: as §1

CC(=O)[O-].CC(=O)[O-].CC(=O)[O-].CC(=O)[O-].CC(=O)[O-].CC(=O)[O-].[Zn+2].[Zn+2].[Zn+2].c1ccc(-c2csc(NCCN(CCNc3nc(-c4ccccn4)cs3)CCNc3nc(-c4ccccn4)cs3)n2)nc1.c1ccc(-c2csc(NCCN(CCNc3nc(-c4ccccn4)cs3)CCNc3nc(-c4ccccn4)cs3)n2)nc1 [[L2Zn3]6+]
% Inhibition, Mean ([1]; RIPK2): 5.55% | % Inhibition, Run 1 / Run 2 ([1]; RIPK2): 8% and 3% | mean % activity ([1]; RIPK2): 94% | % activity ([1]; RIPK2, duplicate runs): 92% and 97% | % Inhibition, Mean [2]: 29% | mean % activity [2]: 71% | % activity ([2]; duplicate runs): 58% and 84% | % Inhibition, Mean ([3]; NEK6): 22% | % Inhibition, Run 1 / Run 2 ([3]; NEK6): 25% and 20% | mean % activity ([3]; NEK6): 78% | % activity ([3]; NEK6, duplicate runs): 75% and 81% | % Inhibition, Mean [4]: 87% | % Inhibition, Run 1 / Run 2 [4]: 88% and 86% | mean % activity [4]: 13% | % Activity inhibition Mean ([4]; 10 µM): 86.5% | % Activity inhibition Run 1 ([4]; 10 µM): 88% | % Activity inhibition Run 2 ([4]; 10 µM): 85% | % Activity remaining Run 1 ([4]; 10 µM): 12% | % Activity remaining Run 2 ([4]; 10 µM): 15% | % activity ([4]; duplicate runs): 12% and 15% | % Inhibition, Mean [5]: 83% | % Inhibition, Run 1 / Run 2 [5]: 84% and 83% | mean % activity [5]: 17% | % Activity inhibition Mean ([5]; 10 µM): 83.5% | % Activity inhibition Run 1 ([5]; 10 µM): 84% | % Activity inhibition Run 2 ([5]; 10 µM): 83% | % Activity remaining Run 1 ([5]; 10 µM): 16% | % Activity remaining Run 2 ([5]; 10 µM): 17% | % activity ([5]; duplicate runs): 16% and 17% | % Activation, Mean value [6]: 19% | % Inhibition, Mean [6]: -19% | mean % activity [6]: 119% | % Activity Run 1 [6]: 131.0% | % Activity Run 2 [6]: 107.0% | % activity ([6]; duplicate runs): 131% and 107% | % Activation, Mean value ([7]; ERK1): 5% | % Inhibition, Mean ([7]; ERK1): -5% | mean % activity ([7]; ERK1): 105% | % activity ([7]; ERK1, duplicate runs): 115% and 95% | % Activation, Mean value [8]: 4.4% | % Inhibition, Mean [8]: -4.4% | % Inhibition, Run 1 / Run 2 [8]: -6% and -2.8% | mean % activity [8]: 104% | % activity ([8]; duplicate runs): 106% and 103% | % Inhibition, Mean ([9]; RSK1): 73% | % Inhibition, Run 1 / Run 2 ([9]; RSK1): 76% and 70% | mean % activity ([9]; RSK1): 27% | % activity ([9]; RSK1, duplicate runs): 24% and 30% | % Inhibition, Mean [10]: 93% | % Inhibition, Run 1 / Run 2 [10]: 94% and 92% | mean % activity [10]: 7% | % Activity inhibition Mean [10]: 93.0% | % Activity inhibition Run 1 [10]: 94% | % Activity inhibition Run 2 [10]: 92% | % Activity remaining Run 1 [10]: 6% | % Activity remaining Run 2 [10]: 8% | % activity ([10]; duplicate runs): 6.4% and 8%

[Cu+2].[Cu+2].[Cu+2].c1ccc(-c2csc(NCCN(CCNc3nc(-c4ccccn4)cs3)CCNc3nc(-c4ccccn4)cs3)n2)nc1.c1ccc(-c2csc(NCCN(CCNc3nc(-c4ccccn4)cs3)CCNc3nc(-c4ccccn4)cs3)n2)nc1 [[L2Cu3]6+]
% Inhibition Run 1 ([1]; RIPK2): 16.3% | % Inhibition Run 2 ([1]; RIPK2): 2.5% | % Inhibition, Mean ([1]; RIPK2): 9% | mean % activity ([1]; RIPK2): 91% | % activity ([1]; RIPK2, Run 1): 83.7% | % activity ([1]; RIPK2, Run 2): 97.5% | % Inhibition Run 1 [2]: 88% | % Inhibition Run 2 [2]: 79.4% | % Inhibition, Mean [2]: 84% | mean % activity [2]: 16% | % activity ([2]; Run 1): 12% | % activity ([2]; Run 2): 20.6% | % Inhibition Run 1 ([3]; NEK6): 34.4% | % Inhibition Run 2 ([3]; NEK6): 27.1% | % Inhibition, Mean ([3]; NEK6): 31% | mean % activity ([3]; NEK6): 69% | % activity ([3]; NEK6, Run 1): 65.6% | % activity ([3]; NEK6, Run 2): 72.9% | % Inhibition Run 1 [4]: 78.1% | % Inhibition Run 2 [4]: 61.2% | % Inhibition, Mean [4]: 70% | mean % activity [4]: 30% | % activity ([4]; Run 1): 21.9% | % activity ([4]; Run 2): 38.8% | % Inhibition Run 1 [5]: 30.9% | % Inhibition Run 2 [5]: 28.1% | % Inhibition, Mean [5]: 30% | mean % activity [5]: 71% | % activity ([5]; Run 1): 69.1% | % activity ([5]; Run 2): 71.9% | % Activation, Mean value [6]: 12% | % Inhibition Run 1 [6]: -26.4% | % Inhibition Run 2 [6]: 2.3% | % Inhibition, Mean [6]: -12% | mean % activity [6]: 112% | % activity ([6]; Run 1): 126.4% | % activity ([6]; Run 2): 97.7% | % Activity Run 1 [6]: 126.40% | % Activity Run 2 [6]: 97.70% | % Activation, Mean value ([7]; ERK1): 1.15% | % Inhibition Run 1 ([7]; ERK1): 6.5% | % Inhibition Run 2 ([7]; ERK1): -8.8% | % Inhibition, Mean ([7]; ERK1): -1.15% | mean % activity ([7]; ERK1): 101% | % activity ([7]; ERK1, Run 1): 93.5% | % activity ([7]; ERK1, Run 2): 108.8% | % Activation, Mean value [8]: 14% | % Inhibition Run 1 [8]: -9.9% | % Inhibition Run 2 [8]: -17.9% | % Inhibition, Mean [8]: -14% | mean % activity [8]: 114% | % activity ([8]; Run 1): 109.9% | % activity ([8]; Run 2): 117.9% | % Activity Run 1 ([8]; 10 µM): 109.90% | % Activity Run 2 ([8]; 10 µM): 117.90% | % Inhibition Run 1 ([9]; RSK1): 96.7% | % Inhibition Run 2 ([9]; RSK1): 97% | % Inhibition, Mean ([9]; RSK1): 97% | mean % activity ([9]; RSK1): 3% | % activity ([9]; RSK1, Run 1): 3.3% | % activity ([9]; RSK1, Run 2): 3% | % Activity inhibition Mean ([9]; RSK1, 10 µM): 96.9% | % Activity inhibition Run 1 ([9]; RSK1, 10 µM): 96.7% | % Activity inhibition Run 2 ([9]; RSK1, 10 µM): 97% | % Activity remaining Run 1 ([9]; RSK1, 10 µM): 3.30% | % Activity remaining Run 2 ([9]; RSK1, 10 µM): 3.00% | % Inhibition Run 1 [10]: 97.2% | % Inhibition Run 2 [10]: 98.1% | % Inhibition, Mean [10]: 98% | mean % activity [10]: 2.35% | % activity ([10]; Run 1): 2.8% | % activity ([10]; Run 2): 1.9% | % Activity inhibition Mean [10]: 97.7% | % Activity inhibition Run 1 [10]: 97.2% | % Activity inhibition Run 2 [10]: 98.1% | % Activity remaining Run 1 [10]: 2.80% | % Activity remaining Run 2 [10]: 1.90%
